PubChem BioAssay (NCI)
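Assay format: 96-well plates, 48-hour exposure. GI50: concentration for 50% inhibition of growth. The concentration for full growth arrest is given as TGI.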

Assays:
Test in all cases: NCI-60 cell line screen, 48 h
OVCAR-5 ovarian = tested on: OVCAR-5 ovarian
HOP-92 NSCLC = tested on: HOP-92 NSCLC
NCI-H23 lung = tested on: NCI-H23 lung
LOX IMVI melanoma = tested on: LOX IMVI melanoma
T-47D breast = tested on: T-47D breast
OVCAR-8 ovarian = tested on: OVCAR-8 ovarian
U251 CNS = tested on: U251 CNS
EKVX NSCLC = tested on: EKVX NSCLC
OVCAR-4 ovarian = tested on: OVCAR-4 ovarian
SK-OV-3 ovarian = tested on: SK-OV-3 ovarian
UO-31 renal = tested on: UO-31 renal
SK-MEL-5 melanoma = tested on: SK-MEL-5 melanoma
CAKI-1 renal = tested on: CAKI-1 renal
SW-620 colon = tested on: SW-620 colon
PC-3 prostate = tested on: PC-3 prostate
DU-145 prostate = tested on: DU-145 prostate
MOLT-4 leukemia = tested on: MOLT-4 leukemia
RPMI-8226 leukemia = tested on: RPMI-8226 leukemia
NCI/ADR-RES ovarian = tested on: NCI/ADR-RES ovarian
NCI-H522 lung = tested on: NCI-H522 lung
IGROV1 ovarian = tested on: IGROV1 ovarian
HCT-116 colon = tested on: HCT-116 colon
SK-MEL-28 melanoma = tested on: SK-MEL-28 melanoma
SF-295 CNS = tested on: SF-295 CNS
K-562 leukemia = tested on: K-562 leukemia
SNB-75 CNS = tested on: SNB-75 CNS
NCI-H226 lung = tested on: NCI-H226 lung
KM12 colon = tested on: KM12 colon
A498 renal = tested on: A498 renal
SF-539 CNS = tested on: SF-539 CNS
HS 578T breast = tested on: HS 578T breast
UACC-257 melanoma = tested on: UACC-257 melanoma
MDA-MB-435 = tested on: MDA-MB-435
CCRF-CEM leukemia = tested on: CCRF-CEM leukemia
OVCAR-3 ovarian = tested on: OVCAR-3 ovarian
SNB-19 CNS = tested on: SNB-19 CNS
SN12C renal = tested on: SN12C renal
ACHN renal = tested on: ACHN renal
SF-268 CNS = tested on: SF-268 CNS
SK-MEL-2 melanoma = tested on: SK-MEL-2 melanoma
SR leukemia = tested on: SR leukemia
COLO 205 colon = tested on: COLO 205 colon
NCI-H460 lung = tested on: NCI-H460 lung
HT29 colon = tested on: HT29 colon
HCC-2998 colon = tested on: HCC-2998 colon
RXF 393 renal = tested on: RXF 393 renal
UACC-62 melanoma = tested on: UACC-62 melanoma
BT-549 breast = tested on: BT-549 breast
786-0 renal = tested on: 786-0 renal
MALME-3M melanoma = tested on: MALME-3M melanoma
MCF7 breast = tested on: MCF7 breast
TK-10 renal = tested on: TK-10 renal
A549 NSCLC = tested on: A549 NSCLC
HL-60(TB) leukemia = tested on: HL-60(TB) leukemia
HOP-62 NSCLC = tested on: HOP-62 NSCLC
M14 melanoma = tested on: M14 melanoma
HCT-15 colon = tested on: HCT-15 colon
MDA-MB-231 breast = tested on: MDA-MB-231 breast

Question: `CN(C)c1cc2c(cc1Sc1nc3c(N)nccc3n1CCNCC(C)(C)C)OCO2` was tested. Which GI50 (OVCAR-5 ovarian) did it give?
Answer: 1120 nM

Question: And the TGI (OVCAR-5 ovarian)?
Answer: 28100 nM

Question: What about the GI50 (HOP-92 NSCLC) of the same compound?
Answer: 334 nM

Question: And the TGI (HOP-92 NSCLC)?
Answer: 2490 nM

Question: And the GI50 (NCI-H23 lung)?
Answer: 448 nM

Question: What about the TGI (NCI-H23 lung) of the same compound?
Answer: 22800 nM

Question: What about the GI50 (LOX IMVI melanoma) of the same compound?
Answer: 417 nM

Question: What about the TGI (LOX IMVI melanoma) of the same compound?
Answer: 4410 nM

Question: What about the GI50 (T-47D breast) of the same compound?
Answer: 533 nM

Question: What about the TGI (T-47D breast) of the same compound?
Answer: 31100 nM

Question: And the GI50 (OVCAR-8 ovarian)?
Answer: 399 nM

Question: And the TGI (OVCAR-8 ovarian)?
Answer: 15800 nM

Question: What about the GI50 (U251 CNS) of the same compound?
Answer: 726 nM

Question: What about the TGI (U251 CNS) of the same compound?
Answer: 14800 nM

Question: And the GI50 (EKVX NSCLC)?
Answer: 1340 nM

Question: What about the TGI (EKVX NSCLC) of the same compound?
Answer: 35200 nM

Question: What about the GI50 (OVCAR-4 ovarian) of the same compound?
Answer: 6170 nM

Question: And the TGI (OVCAR-4 ovarian)?
Answer: 46200 nM

Question: What about the GI50 (SK-OV-3 ovarian) of the same compound?
Answer: 394 nM

Question: And the TGI (SK-OV-3 ovarian)?
Answer: 15200 nM

Question: And the GI50 (UO-31 renal)?
Answer: 640 nM

Question: And the TGI (UO-31 renal)?
Answer: 19000 nM

Question: And the GI50 (SK-MEL-5 melanoma)?
Answer: 713 nM

Question: And the TGI (SK-MEL-5 melanoma)?
Answer: 13200 nM

Question: And the GI50 (CAKI-1 renal)?
Answer: 591 nM

Question: And the TGI (CAKI-1 renal)?
Answer: 39700 nM

Question: And the GI50 (SW-620 colon)?
Answer: 383 nM

Question: And the TGI (SW-620 colon)?
Answer: 13800 nM

Question: What about the GI50 (PC-3 prostate) of the same compound?
Answer: 615 nM

Question: And the TGI (PC-3 prostate)?
Answer: 28800 nM

Question: And the GI50 (DU-145 prostate)?
Answer: 732 nM

Question: And the TGI (DU-145 prostate)?
Answer: 18500 nM

Question: What about the GI50 (MOLT-4 leukemia) of the same compound?
Answer: 287 nM

Question: And the TGI (MOLT-4 leukemia)?
Answer: 3540 nM

Question: What about the GI50 (RPMI-8226 leukemia) of the same compound?
Answer: 658 nM

Question: And the TGI (RPMI-8226 leukemia)?
Answer: 19400 nM

Question: What about the GI50 (NCI/ADR-RES ovarian) of the same compound?
Answer: 731 nM

Question: And the TGI (NCI/ADR-RES ovarian)?
Answer: 24700 nM

Question: And the GI50 (NCI-H522 lung)?
Answer: 453 nM

Question: And the TGI (NCI-H522 lung)?
Answer: 14300 nM

Question: And the GI50 (IGROV1 ovarian)?
Answer: 560 nM

Question: What about the TGI (IGROV1 ovarian) of the same compound?
Answer: 21600 nM

Question: What about the GI50 (HCT-116 colon) of the same compound?
Answer: 381 nM

Question: What about the TGI (HCT-116 colon) of the same compound?
Answer: 13900 nM

Question: And the GI50 (SK-MEL-28 melanoma)?
Answer: 621 nM

Question: And the TGI (SK-MEL-28 melanoma)?
Answer: 15600 nM

Question: And the GI50 (SF-295 CNS)?
Answer: 444 nM

Question: And the TGI (SF-295 CNS)?
Answer: 13600 nM

Question: What about the GI50 (K-562 leukemia) of the same compound?
Answer: 319 nM

Question: And the TGI (K-562 leukemia)?
Answer: 11000 nM

Question: And the GI50 (SNB-75 CNS)?
Answer: 1530 nM

Question: And the TGI (SNB-75 CNS)?
Answer: 19100 nM

Question: What about the GI50 (NCI-H226 lung) of the same compound?
Answer: 1690 nM

Question: What about the TGI (NCI-H226 lung) of the same compound?
Answer: 19700 nM

Question: And the GI50 (KM12 colon)?
Answer: 305 nM

Question: And the TGI (KM12 colon)?
Answer: 2790 nM

Question: What about the GI50 (A498 renal) of the same compound?
Answer: 1460 nM

Question: What about the TGI (A498 renal) of the same compound?
Answer: 10100 nM

Question: And the GI50 (SF-539 CNS)?
Answer: 1450 nM

Question: And the TGI (SF-539 CNS)?
Answer: 16300 nM

Question: What about the GI50 (HS 578T breast) of the same compound?
Answer: 2040 nM

Question: And the TGI (HS 578T breast)?
Answer: 23700 nM

Question: And the GI50 (UACC-257 melanoma)?
Answer: 473 nM

Question: What about the TGI (UACC-257 melanoma) of the same compound?
Answer: 11900 nM

Question: And the GI50 (MDA-MB-435)?
Answer: 426 nM

Question: And the TGI (MDA-MB-435)?
Answer: 15400 nM

Question: What about the GI50 (CCRF-CEM leukemia) of the same compound?
Answer: 317 nM

Question: What about the TGI (CCRF-CEM leukemia) of the same compound?
Answer: 18200 nM

Question: And the GI50 (OVCAR-3 ovarian)?
Answer: 614 nM

Question: What about the TGI (OVCAR-3 ovarian) of the same compound?
Answer: 15800 nM

Question: And the GI50 (SNB-19 CNS)?
Answer: 1000 nM

Question: What about the TGI (SNB-19 CNS) of the same compound?
Answer: 24200 nM

Question: What about the GI50 (SN12C renal) of the same compound?
Answer: 507 nM

Question: And the TGI (SN12C renal)?
Answer: 25000 nM

Question: And the GI50 (ACHN renal)?
Answer: 573 nM

Question: And the TGI (ACHN renal)?
Answer: > 59600 nM

Question: What about the GI50 (SF-268 CNS) of the same compound?
Answer: 1080 nM

Question: What about the TGI (SF-268 CNS) of the same compound?
Answer: 22400 nM

Question: And the GI50 (SK-MEL-2 melanoma)?
Answer: 1050 nM

Question: And the TGI (SK-MEL-2 melanoma)?
Answer: 16900 nM

Question: And the GI50 (SR leukemia)?
Answer: 250 nM

Question: And the TGI (SR leukemia)?
Answer: 12200 nM

Question: What about the GI50 (COLO 205 colon) of the same compound?
Answer: 370 nM

Question: What about the TGI (COLO 205 colon) of the same compound?
Answer: 11600 nM

Question: What about the GI50 (NCI-H460 lung) of the same compound?
Answer: 376 nM

Question: What about the TGI (NCI-H460 lung) of the same compound?
Answer: 12100 nM

Question: What about the GI50 (HT29 colon) of the same compound?
Answer: 285 nM

Question: And the TGI (HT29 colon)?
Answer: 11100 nM

Question: And the GI50 (HCC-2998 colon)?
Answer: 805 nM

Question: And the TGI (HCC-2998 colon)?
Answer: 6030 nM

Question: And the GI50 (RXF 393 renal)?
Answer: 665 nM

Question: What about the TGI (RXF 393 renal) of the same compound?
Answer: 15300 nM

Question: What about the GI50 (UACC-62 melanoma) of the same compound?
Answer: 432 nM

Question: What about the TGI (UACC-62 melanoma) of the same compound?
Answer: 5410 nM

Question: What about the GI50 (BT-549 breast) of the same compound?
Answer: 4220 nM

Question: And the TGI (BT-549 breast)?
Answer: 25000 nM

Question: What about the GI50 (786-0 renal) of the same compound?
Answer: 3890 nM

Question: And the TGI (786-0 renal)?
Answer: 21400 nM

Question: What about the GI50 (MALME-3M melanoma) of the same compound?
Answer: 428 nM

Question: And the TGI (MALME-3M melanoma)?
Answer: 4910 nM

Question: And the GI50 (MCF7 breast)?
Answer: 311 nM

Question: And the TGI (MCF7 breast)?
Answer: 17900 nM

Question: And the GI50 (TK-10 renal)?
Answer: 531 nM

Question: What about the TGI (TK-10 renal) of the same compound?
Answer: 19400 nM

Question: What about the GI50 (A549 NSCLC) of the same compound?
Answer: 438 nM

Question: What about the TGI (A549 NSCLC) of the same compound?
Answer: 18700 nM

Question: And the GI50 (HL-60(TB) leukemia)?
Answer: 274 nM

Question: What about the TGI (HL-60(TB) leukemia) of the same compound?
Answer: 850 nM

Question: And the GI50 (HOP-62 NSCLC)?
Answer: 2390 nM

Question: What about the TGI (HOP-62 NSCLC) of the same compound?
Answer: 22100 nM

Question: What about the GI50 (M14 melanoma) of the same compound?
Answer: 532 nM

Question: What about the TGI (M14 melanoma) of the same compound?
Answer: 15900 nM

Question: What about the GI50 (HCT-15 colon) of the same compound?
Answer: 394 nM

Question: And the TGI (HCT-15 colon)?
Answer: 14500 nM

Question: What about the GI50 (MDA-MB-231 breast) of the same compound?
Answer: 585 nM

Question: What about the TGI (MDA-MB-231 breast) of the same compound?
Answer: 17100 nM
